# Like-named read-outs stand apart in the source and are kept apart here.
# Assays:
# AChE = conditions: background statement; cited from earlier work
# [1] = Generalized Anxiety Disorders Assessment (GAD-7) questionnaire before and after treatment; type: in vivo, human; conditions: for anxiety: GAD-7 post vs pre-treatment; for General anxiety disorder (GAD-7) score, post treatment: 5-9 mild, 10-14 moderate, 15-21 severe anxiety
# Procedure: (§1) 6 anorexic patients were treated with donepezil: 5 of them with a daily dose according to the present invention and 1 with a higher dose (comparative).
# (§2) The studies were led in hospital. Each case is presented below.
# (§3) The treatment started with a daily dose of donepezil of 0.5 mg for 10 days then the daily dose was increased to 1 mg for 7 days then increased to 1.5 mg for 71 days (2 months and 10 days) then increased to 2 mg for 22 days and then increased to 2.5 mg and remains on this dose for 4 months and 18 days.
# Patient #2 anxiety has also been evaluated with Generalized Anxiety Disorders Assessment (GAD-7) questionnaire (available on https://adaa.org/sites/default/files/GAD-7_Anxiety-updated_O.pdf) before and after the treatment. The following scores have been obtained:
# The score obtained with questionary GAD-7 is classified as follows: • 5-9: mild anxiety; 10-14: moderate anxiety; 15-21: severe anxiety
# (§4) The treatment started with a daily dose of donepezil of 0.5 mg for 13 days then the daily dose was increased to 0.75 mg for 9 days then increased to 1 mg for 17 days and then increased to 1.5 mg and remained at this dosage for a month then stopped for two months and then restarted with a daily dose of 1.5 mg that remains within 1 month and then discontinued.
# Patient #4 anxiety has also been evaluated with questionnaire GAD-7 before and after the treatment. The following scores have been obtained:
# (§5) The treatment started with a daily dose of donepezil of 0.5 mg for 8 days and then the daily dose was increased to 1 mg for 9 days and then increased to 1.67 mg for 62 days and then increased to 2.5 mg.
# Patient #6 anxiety has also been evaluated with questionnaire GAD-7 before and after the treatment. The following scores have been obtained:
# The score obtained with questionnaire GAD-7 is classified as follows: • 5-9: mild anxiety; 10-14: moderate anxiety; 15-21: severe anxiety
# [2] = Patient Health Questionnaire (PHQ-9) before and after treatment; type: in vivo, human; conditions: for depression symptoms: PHQ-9 post vs pre-treatment; for Patient Health Questionnaire (PHQ-9) score, post treatment: 5-9 mild, 10-14 moderate, 15-19 moderately severe, 20-27 severe depression
# Procedure: as §1, §2, §3
# Patient #2 depression symptoms have also been evaluated with Patient Health Questionnaire (PHQ-9) (available on https://med.stanford.edu/fastlab/research/imapp/msrs/_jcr_content/main/accordion/accor dion_content3/download_256324296/file.res/PHQ9%20id%20date%2008.03.pdf) before and after the treatment. The following scores have been obtained:
# The score obtained with questionnaire PHQ-9 is classified as follows: • 5-9: mild depression; 10-14: moderate depression; 15-19: moderately severe depression; • 20-27: severe depression
# as §4
# Patient #4 depression symptoms have also been evaluated with questionnaire PHQ-9 before and after the treatment. The following scores have been obtained:
# The score obtained with questionnaire PHQ-9 is classified as follows: • 5-9: mild depression; 10-14: moderate depression; 15-19: moderately severe depression; 20-27: severe depression
# as §5
# Patient #6 depression symptoms have also been evaluated with questionnaire PHQ-9 before and after the treatment.
# [3] = Clinical observation of eating disorder behaviours and cognitions of anorexic patients treated with donepezil; type: in vivo, human
# Procedure: as §1, §2
# Patient #2 is a person who developed anorexia nervosa restricting type in adolescence. They were very restricted in the types of food they ate and could not eat food that was processed or high in sugar or fats. They exercised 3-4 hours a day. They were unable to reduce their exercising even minimally […] becoming flooded with debilitating anxiety. They were unable to eat enough to maintain a healthy weight. Their BMI was 18.5 kg/m^2 and was medically stable when they started donepezil.
# as §3
# Patient #3 is a person with a 20-year history of anorexia nervosa binge/purge type who had been in recovery for two years before relapsing following a relationship trauma. They were slowly losing weight and was bingeing and purging multiple times every evening. They also were waking up every morning at 4 am to exercise obsessively for hours. They were spending all their disposable income on binge foods and was slowly draining their savings. At times they were stealing food to binge on.
# The treatment started with a daily dose of donepezil of 0.5 mg for 10 days and then the daily dose was increased to 1 mg for 9 days and then increased to 1.5 mg for 17 days and then increased to 2 mg for 7 days and then increased to 2.5 mg for 16 days and then discontinued.
# as §4
# A patient who has suffered from anorexia nervosa during their second pregnancy. They have been vigilant about their caloric intake and body image since their adolescence. They also suffer from recurrent depression treated with venlafaxine 75 mg per day and a generalized anxiety disorder. Undernutrition worsened markedly, reaching a minimum BMI of 11 kg/m^2. The maximum lifetime BMI excluding pregnancy is 19.8 kg/m^2. The symptomatology is dominated by qualitative and quantitative food restriction and physical hyperactivity. There is a period of several months of hyperphagia and provoked vomiting. Neurocognitive executive functions are preserved, there is a high tolerance of delayed reward measured by Delay Discounting Task.
# Donepezil was taken at a rate of 2.5 mg per day for 2 months.
# A person with a 20-year history of anorexia nervosa-binge/purge subtype and a comorbid history or obsessive-compulsive disorder. They have been very symptomatic throughout their adolescence and went into a partial remission in early adulthood. Over the next 10 years, their symptoms waxed and waned and they had 2 major relapses that they had slowly recovered from. They were currently weight restored but following some environmental stresses, was starting to relapse. They were struggling with increasing eating disordered ruminations and cognitions, increasing body image distortions and dissatisfaction. They were becoming more rigid and restrictive in their eating. They also saw a rise in their obsessive-compulsive disorder symptoms.
# as §5
# [4] = Patient #2, daily dose 0.5-2.5 mg
# [5] = Patient #4, daily dose 0.5 to 1.5 mg
# [6] = Patient #6, daily dose 0.5 mg to 2.5 mg
# [7] = low dose between 0.5 and 2.5 mg/day, clinical cases overall (conclusion)
# [8] = Patient #2, daily dose 0.5-2.5 mg, over the next 5 months
# [9] = Patient #3, daily dose 0.5-2.5 mg, within a month of starting
# [10] = Patient #6, daily dose 0.5 mg to 2.5 mg, over 3 months
structure (smiles),measurement,setting,value
COc1cc2c(cc1OC)C(=O)C(CC1CCN(Cc3ccccc3)CC1)C2 (stereo not drawn) [donepezil],inhibition of AChE,AChE,reversible and selective inhibitor of AChE
same,anxiety,[1]; [4],diminution of their anxiety
same,"General anxiety disorder (GAD-7) score, post treatment","[1]; Patient #2, daily dose 0.5-2.5 mg, pre-treatment score 16",12
same,anxiety,[1]; [5],diminution of their anxiety
same,"General anxiety disorder (GAD-7) score, post treatment","[1]; Patient #4, daily dose 0.5 to 1.5 mg, pre-treatment score 16",9
same,anxiety,[1]; [6],strong diminution of their anxiety
same,"General anxiety disorder (GAD-7) score, post treatment","[1]; Patient #6, daily dose 0.5 mg to 2.5 mg, pre-treatment score 15",3
same,improvement and severe side effects,"Other patients (#2-#6), 0.5-2.5 mg PO OD (conclusion)",improved without severe side effects
same,blood pressure,"Patient #1 (comparative), 5 mg daily per os, in local emergency department, previously normal 120/70 mmHg, no other cause found, donepezil discontinued",183/124
same,side-effects,"Patient #1 (comparative), 5 mg daily per os, within 5 days, responded to over-the-counter pain medications",drowsiness and headaches
same,blood pressure,"Patient #1 (comparative), 5 mg daily per os, within a week, previously normal 120/70 mmHg",175/120
same,blood pressure,"Patient #1 (comparative), next few weeks after discontinuing donepezil (5 mg daily), previously normal 120/70 mmHg",140/95
same,severe side effect,"Patient #1, 5 mg PO OD (conclusion)",severe side effect (high blood pressure and severe headache)
same,blood pressure,[4],remained unaffected
same,other side-effects,[4],no other side-effects
same,side effects,[7],without causing any side effects
same,depression symptoms,[2]; [4],diminution of their depression symptoms
same,"Patient Health Questionnaire (PHQ-9) score, post treatment","[2]; Patient #2, daily dose 0.5-2.5 mg, pre-treatment score 10",4
same,depression symptoms,[2]; [5],diminution of their depression symptoms
same,"Patient Health Questionnaire (PHQ-9) score, post treatment","[2]; Patient #4, daily dose 0.5 to 1.5 mg, pre-treatment score 17",5
same,depression symptoms,[2]; [6],diminution of their depression symptoms
same,"Patient Health Questionnaire (PHQ-9) score, post treatment","[2]; Patient #6, daily dose 0.5 mg to 2.5 mg, pre-treatment score 6",2
same,flexibility with eating,[3]; [8],able to be more flexible with their eating and incorporate a wider variety of foods
same,preoccupation with weight or appearance,[3]; [8],much less preoccupied with their weight or appearance
same,ruminations and compulsions to exercise,[3]; [8],decrease in ruminations and compulsions to exercise
same,exercise per day,"[3]; Patient #2, daily dose 0.5-2.5 mg, over the next 5 months, exercised 3-4 hours a day before",90 minutes a day
same,bingeing (and consequent purging),[3]; [9],able to reduce their bingeing (and consequent purging) significantly
same,stealing food,[3]; [9],stopped stealing food completely
same,maximum spending on binge foods,"[3]; Patient #3, daily dose 0.5-2.5 mg, within a month of starting, all disposable income before",≤ 5.00 $
same,flexibility with eating and eating disordered cognitions,"[3]; Patient #4, daily dose 1.5 mg, within a month",more flexible with their eating and less preoccupied with their eating disordered cognitions and urges to restrict and lose weight
same,flexibility with eating and weight after restart,"[3]; Patient #4, donepezil restarted for a month at 1.5 mg daily, improvements continued after discontinuing","more flexible with their eating, and they started to gain weight slowly"
same,eating disordered cognitions after stopping medication,"[3]; Patient #4, two months without donepezil after 1st month at 1.5 mg daily",increasing rigidity in their eating disordered cognitions
same,ease of eating,"[3]; Patient #5, 2.5 mg per day for 2 months, end of treatment period",began to eat more easily
same,eating disordered cognitions and ruminations,[3]; [10],significant decrease in their eating disordered cognitions and ruminations
same,intensity of body image distress,[3]; [10],reduction in the intensity of their body image distress
same,usefulness to treat anorexia and related compulsive behaviors,[3]; [7],useful to treat anorexia and related compulsive behaviors

# — patent publication US20260373136A1, “A NOVEL DOSAGE REGIMEN USING LOW DOSES OF DONEPEZIL OR DERIVATIVE THEREOF FOR PREVENTING OR TREATING A COMPULSIVE DISORDER” (SORBONNE UNIVERSITE, priority 2022, published 2026)
